Test results: patent US20180147187A1, “COMPOUNDS, COMPOSITIONS, AND METHODS FOR INCREASING CFTR ACTIVITY” (Proteostasis Therapeutics, Inc., priority 2006, published 2018)

Tests used:
ΔF508-CFTR [1] = target: T1, ΔF508-CFTR (Homo sapiens, UniProt P13569, DEL508-508); test: hBE Equivalent Current (Ieq) Assay; type: cell-based; conditions: compound at 10 uM and VX-809 at 1 uM; ΔF508 homozygous hBE, 24 hours; AUC of equivalent chloride current
T1 construct: primary lung epithelial cells (hBEs) homozygous for the Cystic Fibrosis-causing ΔF508 mutation; endogenous in cells; host or cells: primary human bronchial epithelial cells (hBE), ΔF508/ΔF508, differentiated at air-liquid interface
T1 sequence (P13569 with tags, fused parts or gaps DEL508-508): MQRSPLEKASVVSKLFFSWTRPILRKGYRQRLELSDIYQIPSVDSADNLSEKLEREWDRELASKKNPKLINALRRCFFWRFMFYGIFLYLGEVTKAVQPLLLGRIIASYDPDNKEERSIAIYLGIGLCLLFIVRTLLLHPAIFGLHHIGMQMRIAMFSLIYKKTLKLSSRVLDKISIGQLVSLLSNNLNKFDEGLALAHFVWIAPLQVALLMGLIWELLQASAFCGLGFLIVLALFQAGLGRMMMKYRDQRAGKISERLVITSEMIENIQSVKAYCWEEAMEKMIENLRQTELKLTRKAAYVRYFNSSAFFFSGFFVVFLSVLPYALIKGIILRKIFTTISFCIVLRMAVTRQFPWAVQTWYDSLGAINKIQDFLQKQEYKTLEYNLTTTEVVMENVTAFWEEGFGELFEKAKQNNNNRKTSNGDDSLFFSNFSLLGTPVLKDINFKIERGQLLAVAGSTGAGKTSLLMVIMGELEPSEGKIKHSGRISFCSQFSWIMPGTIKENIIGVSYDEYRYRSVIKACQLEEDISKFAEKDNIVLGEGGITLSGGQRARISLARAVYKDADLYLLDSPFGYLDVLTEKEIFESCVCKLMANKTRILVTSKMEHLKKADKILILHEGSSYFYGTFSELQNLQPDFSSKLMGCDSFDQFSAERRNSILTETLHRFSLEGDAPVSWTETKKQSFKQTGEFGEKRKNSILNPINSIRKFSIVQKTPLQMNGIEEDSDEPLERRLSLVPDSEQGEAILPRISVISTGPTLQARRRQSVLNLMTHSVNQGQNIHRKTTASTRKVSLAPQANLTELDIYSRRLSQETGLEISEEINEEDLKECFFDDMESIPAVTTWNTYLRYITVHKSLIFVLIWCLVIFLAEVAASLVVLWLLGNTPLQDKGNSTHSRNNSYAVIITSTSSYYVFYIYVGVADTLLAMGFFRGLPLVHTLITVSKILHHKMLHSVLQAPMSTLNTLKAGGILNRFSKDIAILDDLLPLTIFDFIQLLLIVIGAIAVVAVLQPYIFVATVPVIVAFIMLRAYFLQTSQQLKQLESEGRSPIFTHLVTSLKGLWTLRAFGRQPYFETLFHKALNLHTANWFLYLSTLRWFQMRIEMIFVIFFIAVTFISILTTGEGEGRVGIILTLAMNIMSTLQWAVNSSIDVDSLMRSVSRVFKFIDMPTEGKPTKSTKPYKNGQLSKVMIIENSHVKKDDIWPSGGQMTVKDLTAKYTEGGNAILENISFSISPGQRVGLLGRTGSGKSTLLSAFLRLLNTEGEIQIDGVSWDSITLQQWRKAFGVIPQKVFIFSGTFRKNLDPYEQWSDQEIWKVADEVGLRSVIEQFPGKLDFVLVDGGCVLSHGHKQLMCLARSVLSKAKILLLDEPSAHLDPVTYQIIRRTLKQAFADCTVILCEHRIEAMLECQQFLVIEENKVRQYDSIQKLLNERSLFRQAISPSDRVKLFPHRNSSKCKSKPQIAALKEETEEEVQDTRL
Protocol: Primary lung epithelial cells homozygous for the Cystic Fibrosis-causing ΔF508 mutation were differentiated for a minimum of 4 weeks in an air-liquid interface on Costar 24 well HTS filter plates prior to the equivalent current (Ieq) measurements. Cells were apically mucus-washed for 30 minutes 24 h prior to treatment with compounds. The basolateral media was removed and replaced with media containing the compound of interest diluted to its final concentration from DMSO stocks. Treated cells were incubated at 37° C. and 5% CO2 for 24 hours. At the end of the treatment period, the media was changed to the Ieq experimental solution for 30 minutes before the experiment and plates are maintained in a CO2-free incubator during this period. The plates containing the cells were then placed in pre-warmed heating blocks at 36° C.±0.5 for 15 minutes before measurements are taken. The transepithelial voltage (VT) and conductance (GT) were measured using a custom 24 channel current clamp (TECC-24) with 24 well electrode manifold. The Ieq assay measurements were made following additions with standardized time periods: • 1. The baseline VT and GT values were measured for approximately 20 minutes. • 2. Benzamil was added to block ENaC for 15 minutes. • 3. Forskolin plus VX-770 (ivacaftor) were added to maximally activate ΔF508-CFTR for 27 minutes. • 4. Bumetanide was added to inhibit the NaK2C1 cotransporter and shut-off secretion of chloride.
The activity data captured was the area under the curve (AUC) for the traces of the equivalent chloride current. The AUC was collected from the time of the forskolin/VX-770 addition until the inhibition by bumetanide addition. Correction in response to compound treatment was scored as the increase in the AUC for compound-treated samples over that of vehicle-treated samples.
(§1) (** indicates activity ≥200% of VX-809 (1 uM) with compound at 10 uM and VX-809 at 1 uM; * indicates activity 100-200% of VX-809 (1 uM) with compound at 10 uM and VX-809 at 1 uM. ^## indicates activity ≥200% of VX-809 (3 uM) with compound at 10 uM and VX-809 at 3 uM; ^# indicates activity 100-200% of VX-809 (3 uM) with compound at 10 uM and VX-809 at 3 uM.

ΔF508-CFTR [2] = target: T1, ΔF508-CFTR; test: Ussing measurements, hBEs homozygous for ΔF508; type: cell-based; conditions: compound at 10 uM and VX-809 at 3 uM; ΔF508 homozygous hBE, 24 hours; CFTRinh-172 inhibitable current
Protocol: As discussed above, Ussing measurements can be used to measure CFTR activity. In this example, primary lung epithelial cells (hBEs) homozygous for the Cystic Fibrosis-causing ΔF508 mutation were differentiated for a minimum of 4 weeks in an air-liquid interface on SnapWell filter plates prior to the Ussing measurements. Cells were apically mucus-washed for 30 minutes prior to treatment with compounds. The basolateral media was removed and replaced with media containing the compound of interest diluted to its final concentration from DMSO stocks. Treated cells were incubated at 37° C. and 5% CO2 for 24 hours. At the end of the treatment period, the cells on filters were transferred to the Ussing chamber and equilibrated for 30 minutes. The short-circuit current was measured in voltage clamp-mode (Vhold=0 mV), and the entire assay was conducted at a temperature of 36° C.-36.5° C. Once the voltages stabilized, the chambers were clamped, and data was recorded by pulse readings every 5 seconds. Following baseline current stabilization, the following additions were applied and the changes in current and resistance of the cells was monitored: • 1. Benzamil to the apical chamber to inhibit ENaC sodium channel. • 2. Forskolin to both chambers to activate ΔF508-CFTR by phosphorylation. • 3. Genistein or VX-770 (ivacaftor) to both chambers to potentiate ΔF508-CFTR channel opening. • 4. CFTRinh-172 to the apical chamber to inhibit ΔF508-CFTR Cl— conductance.
(§2) The inhibitable current (that current that is blocked by CFTRinh-172) is measured as the specific activity of the ΔF508-CFTR channel, and increases in response to compound in this activity over that observed in vehicle-treated samples are identified as the correction of ΔF508-CFTR function imparted by the compound tested.
as §1

CFTR, S549N/F508del HBEs = test: Ussing measurements, class III mutation hBEs (S549N/F508del); type: cell-based, human; conditions: Ivacaftor 1 uM, Compound A 10 uM, 24 hours
Protocol: (§3) As discussed above, Ussing measurements was used to measure CFTR activity. In this method, primary lung epithelial cells (hBEs) with a Cystic Fibrosis-causing class III mutation were differentiated for a minimum of 4 weeks in an air-liquid interface on SnapWell™ filter plates prior to the Ussing measurements. Cells were apically mucus-washed for 30 minutes prior to treatment with compounds. The basolateral media was removed and replaced with media containing the compound of interest diluted to its final concentration from DMSO stocks. Treated cells were incubated at 37° C. and 5% CO2 for 24 hours. At the end of the treatment period, the cells on filters were transferred to the Ussing chamber and equilibrated for 30 minutes. The short-circuit current was measured in voltage clamp-mode (Vhold=0 mV), and the entire assay was conducted at a temperature of 36° C.-36.5° C. Once the voltages stabilized, the chambers were clamped, and data was recorded by pulse readings every 5 seconds. Following baseline current stabilization, the following additions were applied and the changes in current and resistance of the cells was monitored: • 1. Benzamil to the apical chamber to inhibit ENaC sodium channel. • 2. Forskolin to both chambers to activate ΔF508-CFTR by phosphorylation. • 3. Genistein or VX-770 (ivacaftor) to the apical chamber to potentiate ΔF508-CFTR channel opening. • 4. CFTRinh-172 to the apical chamber to inhibit ΔF508-CFTR Cl— conductance.
as §2, with “The forskolin-sensitive current and” for “The”, “(that potentiated” for “(that”, “CFTRinh-172) were” for “CFTRinh-172) is”, “and increase” for “and increases”, “samples were” for “samples are”
(§4) The results are shown below in Tables 5 and 6. VX-661 is 3 uM, Ivacaftor is 1 uM and Compound A is 10 uM.

CFTR, G551D/F508del HBEs = test: Ussing measurements, class III mutation hBEs (G551D/F508del); type: cell-based, human; conditions: VX-661 3 uM, Ivacaftor 1 uM, Compound A 10 uM, 24 hours
Protocol: as §3
as §2, with “The forskolin-sensitive current and” for “The”, “(that potentiated” for “(that”, “CFTRinh-172) were” for “CFTRinh-172) is”, “and increase” for “and increases”, “samples were” for “samples are”
as §4

Structure (SMILES): O=C(N[C@H]1C[C@H](n2cc(CO)nn2)C1)c1cc(-c2ccccc2)on1
- Ieq (% VX-809) (ΔF508-CFTR [1]): * (* indicates activity 100-200% of VX-809 (1 uM) with compound at 10 uM and VX-809 at 1 uM)
- Ussing (% VX-809) (ΔF508-CFTR [2]): ## (^## indicates activity ≥200% of VX-809 (3 uM) with compound at 10 uM and VX-809 at 3 uM)

Structure (SMILES): O=C(N[C@H]1C[C@@H](c2nnc(CO)s2)C1)c1cc(-c2ccccc2)on1
- Ieq (% VX-809) (ΔF508-CFTR [1]): ** (** indicates activity ≥200% of VX-809 (1 uM) with compound at 10 uM and VX-809 at 1 uM)

Structure (SMILES): O=C(NC1CC(c2nnc(CO)o2)C1)c1cc(-c2ccccc2)on1 (centres unmarked)
- Ussing (% VX-809) (ΔF508-CFTR [2]): ## (^## indicates activity ≥200% of VX-809 (3 uM) with compound at 10 uM and VX-809 at 3 uM)

Structure (SMILES): C[C@H](O)c1nnc(C2CC(NC(=O)c3cc(-c4ccccc4)on3)C2)o1 (some centres unmarked)
- Ussing (% VX-809) (ΔF508-CFTR [2]): ## (^## indicates activity ≥200% of VX-809 (3 uM) with compound at 10 uM and VX-809 at 3 uM)

Structure (SMILES): O=C(N[C@H]1C[C@H](n2nncc2CO)C1)c1cc(-c2ccccc2)on1
- Ieq (% VX-809) (ΔF508-CFTR [1]): * (* indicates activity 100-200% of VX-809 (1 uM) with compound at 10 uM and VX-809 at 1 uM)
- Ussing (% VX-809) (ΔF508-CFTR [2]): ## (^## indicates activity ≥200% of VX-809 (3 uM) with compound at 10 uM and VX-809 at 3 uM)

Structure (SMILES): C[C@@H](O)c1nnc(C2CC(NC(=O)c3cc(-c4ccccc4)on3)C2)o1 (some centres unmarked)
- Ussing (% VX-809) (ΔF508-CFTR [2]): ## (^## indicates activity ≥200% of VX-809 (3 uM) with compound at 10 uM and VX-809 at 3 uM)

Structure (SMILES): C[C@@H](O)c1cn([C@H]2C[C@@H](NC(=O)c3cc(-c4ccccc4)on3)C2)nn1
- Ieq (% VX-809) (ΔF508-CFTR [1]): ** (** indicates activity ≥200% of VX-809 (1 uM) with compound at 10 uM and VX-809 at 1 uM)

Structure (SMILES): O=C(N[C@H]1C[C@@H](n2ccc(CO)n2)C1)c1cc(-c2ccccc2)on1
- Ieq (% VX-809) (ΔF508-CFTR [1]): ** (** indicates activity ≥200% of VX-809 (1 uM) with compound at 10 uM and VX-809 at 1 uM)

Structure (SMILES): O=C(NC[C@H]1C[C@@H](c2nnc(CO)s2)C1)c1cc(-c2ccccc2)on1
- Ieq (% VX-809) (ΔF508-CFTR [1]): ** (** indicates activity ≥200% of VX-809 (1 uM) with compound at 10 uM and VX-809 at 1 uM)

Structure (SMILES): O=C(N[C@H]1C[C@@H](n2nncc2CO)C1)c1cc(-c2ccccc2)on1
- Ieq (% VX-809) (ΔF508-CFTR [1]): ** (** indicates activity ≥200% of VX-809 (1 uM) with compound at 10 uM and VX-809 at 1 uM)
- Ussing (% VX-809) (ΔF508-CFTR [2]): ## (^## indicates activity ≥200% of VX-809 (3 uM) with compound at 10 uM and VX-809 at 3 uM)

Structure (SMILES): C[C@H](O)c1cn([C@H]2C[C@@H](NC(=O)c3cc(-c4ccccc4)on3)C2)nn1
- Ieq (% VX-809) (ΔF508-CFTR [1]): ** (** indicates activity ≥200% of VX-809 (1 uM) with compound at 10 uM and VX-809 at 1 uM)

Structure (SMILES): Cc1ccc(NC(=O)C2(c3ccc4c(c3)OC(F)(F)O4)CC2)nc1-c1cccc(C(=O)O)c1 [VX-809, 3-(6-(1-(2,2-difluorobenzo[d][1,3]dioxol-5-yl)cyclopropanecarboxamido)-3-methylpyridin-2-yl)benzoic acid]
- Activity in S549N/F508del HBEs (CFTR, S549N/F508del HBEs): 6.4 uAMP/cm^2

Structure (SMILES): C[C@H](O)c1cnnn1[C@H]1C[C@@H](NC(=O)c2cc(-c3ccccc3)on2)C1
- Ieq (% VX-809) (ΔF508-CFTR [1]): ** (** indicates activity ≥200% of VX-809 (1 uM) with compound at 10 uM and VX-809 at 1 uM)
- Ussing (% VX-809) (ΔF508-CFTR [2]): ## (^## indicates activity ≥200% of VX-809 (3 uM) with compound at 10 uM and VX-809 at 3 uM)

Structure (SMILES): O=C(N[C@H]1C[C@@H](n2cc(CO)cn2)C1)c1cc(-c2ccccc2)on1
- Ieq (% VX-809) (ΔF508-CFTR [1]): * (* indicates activity 100-200% of VX-809 (1 uM) with compound at 10 uM and VX-809 at 1 uM)

Structure (SMILES): O=C(N[C@H]1C[C@@H](Cc2nnc(CO)s2)C1)c1cc(-c2ccccc2)on1
- Ieq (% VX-809) (ΔF508-CFTR [1]): ** (** indicates activity ≥200% of VX-809 (1 uM) with compound at 10 uM and VX-809 at 1 uM)
- Ussing (% VX-809) (ΔF508-CFTR [2]): ## (^## indicates activity ≥200% of VX-809 (3 uM) with compound at 10 uM and VX-809 at 3 uM)

Structure (SMILES): O=C(N[C@H]1C[C@H](Cc2nnc(CO)s2)C1)c1cc(-c2ccccc2)on1
- Ieq (% VX-809) (ΔF508-CFTR [1]): ** (** indicates activity ≥200% of VX-809 (1 uM) with compound at 10 uM and VX-809 at 1 uM)

Structure (SMILES): CC(C)(CO)c1cc2cc(NC(=O)C3(c4ccc5c(c4)OC(F)(F)O5)CC3)c(F)cc2n1C[C@@H](O)CO [VX-661, 1-(2,2-difluoro-1,3-benzodioxol-5-yl)-N-[1-[(2R)-2,3-dihydroxypropyl]-6-fluoro-2-(2-hydroxy-1,1-dimethylethyl)-1H-indol-5-yl]-cyclopropanecarboxamide]
- Activity in G551D/F508del HBEs (CFTR, G551D/F508del HBEs): 3.8 uAMP/cm^2

Structure (SMILES): C[C@@H](O)c1cnnn1[C@H]1C[C@@H](NC(=O)c2cc(-c3ccccc3)on2)C1
- Ieq (% VX-809) (ΔF508-CFTR [1]): ** (** indicates activity ≥200% of VX-809 (1 uM) with compound at 10 uM and VX-809 at 1 uM)

Structure (SMILES): O=C(N[C@H]1C[C@@H](n2cc(CO)nn2)C1)c1cc(-c2ccccc2)on1
- Ieq (% VX-809) (ΔF508-CFTR [1]): ** (** indicates activity ≥200% of VX-809 (1 uM) with compound at 10 uM and VX-809 at 1 uM)
- Ussing (% VX-809) (ΔF508-CFTR [2]): ## (^## indicates activity ≥200% of VX-809 (3 uM) with compound at 10 uM and VX-809 at 3 uM)

Structure (SMILES): O=C(NC[C@H]1C[C@H](c2nnc(CO)s2)C1)c1cc(-c2ccccc2)on1
- Ieq (% VX-809) (ΔF508-CFTR [1]): ** (** indicates activity ≥200% of VX-809 (1 uM) with compound at 10 uM and VX-809 at 1 uM)
